Test results reported in ChEMBL document CHEMBL6078657, “Thiazolidinedione-based structure modification of ergosterol peroxide provides thiazolidinedione-conjugated derivatives as potent agents against breast cancer cells through a PI3K/AKT/mTOR pathway” (Bioorg Med Chem, 2025).
Calls of active or inactive are those of the source. The rule behind the calls is not given here.

How the values were obtained:
[1] = tested on: MCF7; experiment: Antiproliferative activity against human MCF7 cells assessed as cell viability measured after 48 hrs incubation by MTT assay; type: functional, cell-based; conditions: MCF7, 48 h
[2] = tested on: HepG2; experiment: Antiproliferative activity against human HepG2 cells assessed as cell viability measured after 48 hrs incubation by MTT assay; type: functional, cell-based; conditions: HepG2, 48 h
[3] = Selectivity index, ratio of IC50 for human MCF-10A cells to IC50 for human MCF7 cells; type: toxicity; conditions: MCF-10A cells and MCF7 cells, read-out: Selectivity Index
[4] = Antiproliferative activity against human MCF-10A cells assessed as cell viability measured after 48 hrs incubation by MTT assay; type: toxicity, cell-based
[5] = tested on: A549; experiment: Antiproliferative activity against human A549 cells assessed as cell viability measured after 48 hrs incubation by MTT assay; type: functional, cell-based; conditions: A549, 48 h
[6] = tested on: MCF7; experiment: Induction of apoptosis in human MCF7 cells assessed as viable cells at 6 uM measured after 48 hrs incubation by Annexin V-FITC/PI double staining assay (reference value: 92.8%); type: functional; conditions: read-out: Activity
[7] = tested on: MCF7; experiment: Induction of apoptosis in human MCF7 cells assessed as early apoptotic cells at 6 uM measured after 48 hrs incubation by Annexin V-FITC/PI double staining assay (reference value: 5.73%); type: functional
[8] = tested on: MCF7; experiment: Induction of cell cycle arrest in human MCF7 cells assessed as accumulation of cells at G2/M phase at 6 uM measured after 48 hrs by PI staining based flow cytometry analysis (reference value: 16.91%); type: functional
[9] = tested on: MCF7; experiment: Induction of apoptosis in human MCF7 cells assessed as necrotic cells at 6 uM measured after 48 hrs incubation by Annexin V-FITC/PI double staining assay (reference value: 0.77%); type: functional
[10] = tested on: MCF7; experiment: Induction of apoptosis in human MCF7 cells assessed as decrease in mitochondrial membrane potential by measuring increase in JC-1 monomer (green fluorescence) at 6 uM incubated for 48 hrs by JC-1 staining based flow cytometry analysis (reference value: 2.96%); type: functional; parameters: scale not given: the % may be the effect or the level left
[11] = tested on: MCF7; experiment: Induction of apoptosis in human MCF7 cells assessed as late apoptotic cells at 6 uM measured after 48 hrs incubation by Annexin V-FITC/PI double staining assay (reference value: 0.68%); type: functional
[12] = tested on: MCF7; experiment: Induction of cell cycle arrest in human MCF7 cells assessed as accumulation of cells at S phase at 6 uM measured after 48 hrs by PI staining based flow cytometry analysis (reference value: 24.67%); type: functional
[13] = tested on: MCF7; experiment: Induction of cell cycle arrest in human MCF7 cells assessed as accumulation of cells at G0/G1 phase at 6 uM measured after 48 hrs by PI staining based flow cytometry analysis (reference value: 58.42%); type: functional
[14] = tested on: 4T1; experiment: In vivo antitumor activity against mouse 4T1 cells transfected in BALB/c mouse assessed as tumor growth inhibition at 30 mg/kg, ip daily for 14 consecutive days relative to control; type: functional; conditions: 4T1, 336 h, time 14 day, read-out: TGI
[15] = Toxicity in healthy BALB/c mouse assessed as pathological changes in heart at 20 mg/kg, ip daily for 14 consecutive days by HE staining based assay; type: organism-based; conditions: in vivo, 336 h, time 14 day
[16] = tested on: 4T1; experiment: In vivo antitumor activity against mouse 4T1 cells transfected in BALB/c mouse assessed as tumor growth inhibition at 15 mg/kg, ip daily for 14 consecutive days relative to control; type: functional; conditions: time 14.0 day

SMILES | IC50 [1] | IC50 [2] | selectivity ratio [3] | IC50 at 48 h [4] | IC50 [5] | further results
CC(C)[C@@H](C)/C=C/[C@@H](C)[C@H]1CC[C@@H]2[C@]1(C)CC[C@H]1[C@]23C=C[C@]2(C[C@@H](OC(=O)NCCNC(=O)CN4C(=O)S/C(=C\c5ccc(Cl)cc5)C4=O)CC[C@]12C)OO3 | 5.9 µM | 8.92 µM | 4.9 | 28.9 µM | 8.91 µM | –
Cc1ccc(/C=C2\SC(=O)N(CC(=O)NCCNC(=O)O[C@H]3CC[C@]4(C)[C@H]5CC[C@]6(C)[C@@H]([C@H](C)/C=C/[C@H](C)C(C)C)CC[C@H]6[C@@]56C=C[C@]4(C3)OO6)C2=O)cc1 | 4.71 µM | 6.82 µM | 5.11 | 24.1 µM | 7.18 µM | –
CC(C)[C@@H](C)/C=C/[C@@H](C)[C@H]1CC[C@@H]2[C@]1(C)CC[C@H]1[C@]23C=C[C@]2(C[C@@H](OC(=O)NCCNC(=O)CN4C(=O)S/C(=C\c5ccc(Br)cc5)C4=O)CC[C@]12C)OO3 | 4.39 µM | 7.34 µM | 10.3 | 45.3 µM | 7.9 µM | –
CC(C)[C@@H](C)/C=C/[C@@H](C)[C@H]1CC[C@@H]2[C@]1(C)CC[C@H]1[C@]23C=C[C@]2(C[C@@H](O)CC[C@]12C)OO3 [ERGOSTEROL PEROXIDE] | 19.4 µM | 18.1 µM | – | – | 15 µM | viability at 6 µM [6]: 90.1%; Activity [7]: 8.97%; Activity [8]: 19.66%; Activity [9]: 0.47%; Activity [10]: 11.3%; Activity [11]: 0.45%; Activity [12]: 18.74%; Activity [13]: 61.61%
CC(C)[C@@H](C)/C=C/[C@@H](C)[C@H]1CC[C@@H]2[C@]1(C)CC[C@H]1[C@]23C=C[C@]2(C[C@@H](OC(=O)NCCNC(=O)CN4C(=O)S/C(=C\C5CC5)C4=O)CC[C@]12C)OO3 | 5.49 µM | 6.02 µM | 6.55 | 35.9 µM | 3.32 µM | –
CC(C)[C@@H](C)/C=C/[C@@H](C)[C@H]1CC[C@@H]2[C@]1(C)CC[C@H]1[C@]23C=C[C@]2(C[C@@H](OC(=O)NCCNC(=O)CN4C(=O)S/C(=C\c5ccccc5)C4=O)CC[C@]12C)OO3 | 6.8 µM | 7.95 µM | 6.12 | 41.6 µM | 11.4 µM | –
COc1ccc(/C=C2\SC(=O)N(CC(=O)NCCNC(=O)O[C@H]3CC[C@]4(C)[C@H]5CC[C@]6(C)[C@@H]([C@H](C)/C=C/[C@H](C)C(C)C)CC[C@H]6[C@@]56C=C[C@]4(C3)OO6)C2=O)c(OC)c1OC | 4.26 µM | 5.77 µM | 7.07 | 30.1 µM | 5.08 µM | –
COc1ccc(/C=C2\SC(=O)N(CC(=O)NCCNC(=O)O[C@H]3CC[C@]4(C)[C@H]5CC[C@]6(C)[C@@H]([C@H](C)/C=C/[C@H](C)C(C)C)CC[C@H]6[C@@]56C=C[C@]4(C3)OO6)C2=O)cc1OC | 5.33 µM | 6.18 µM | 3.89 | 20.8 µM | 8.54 µM | –
CC(C)[C@@H](C)/C=C/[C@@H](C)[C@H]1CC[C@H]2C3=CC=C4C[C@@H](OC(=O)NCCNC(=O)CN5C(=O)S/C(=C\C6CC6)C5=O)CC[C@]4(C)[C@H]3CC[C@]12C | > 80 µM | > 80 µM | – | – | > 80 µM | –
CC(C)[C@@H](C)/C=C/[C@@H](C)[C@H]1CC[C@@H]2[C@]1(C)CC[C@H]1[C@]23C=C[C@]2(C[C@@H](OC(=O)N4CCN(C(=O)CN5C(=O)S/C(=C\c6ccccc6F)C5=O)CC4)CC[C@]12C)OO3 | 15.8 µM | 10.8 µM | – | – | 6.95 µM | –
CC(C)/C=C1\SC(=O)N(CC(=O)N2CCN(C(=O)O[C@H]3CC[C@]4(C)[C@H]5CC[C@]6(C)[C@@H]([C@H](C)/C=C/[C@H](C)C(C)C)CC[C@H]6[C@@]56C=C[C@]4(C3)OO6)CC2)C1=O | 8.89 µM | 10.5 µM | – | – | 7.69 µM | –
CC(C)[C@@H](C)/C=C/[C@@H](C)[C@H]1CC[C@@H]2[C@]1(C)CC[C@H]1[C@]23C=C[C@]2(C[C@@H](OC(=O)CN4C(=O)S/C(=C/c5ccc(F)c(Cl)c5)C4=O)CC[C@]12C)OO3 | 11.1 µM | 15.8 µM | – | – | 7.92 µM | –
CC(C)[C@@H](C)/C=C/[C@@H](C)[C@H]1CC[C@@H]2[C@]1(C)CC[C@H]1[C@]23C=C[C@]2(C[C@@H](OC(=O)CN4C(=O)S/C(=C/C5CC5)C4=O)CC[C@]12C)OO3 | 9.35 µM | 13.1 µM | – | – | 13 µM | –
O=c1[nH]cc(F)c(=O)[nH]1 [FLUOROURACIL] | – | 10.7 µM | – | – | 4.27 µM | inhibition in vivo at 30 mg/kg [14]: 86.1%; Activity [15]: Non-toxic; TGI [16]: Active
COc1ccc(/C=C2/SC(=O)N(CC(=O)O[C@H]3CC[C@]4(C)[C@H]5CC[C@]6(C)[C@@H]([C@H](C)/C=C/[C@H](C)C(C)C)CC[C@H]6[C@@]56C=C[C@]4(C3)OO6)C2=O)cc1OC | 13.6 µM | 18 µM | – | – | 15.2 µM | –
CC(C)[C@@H](C)/C=C/[C@@H](C)[C@H]1CC[C@@H]2[C@]1(C)CC[C@H]1[C@]23C=C[C@]2(C[C@@H](OC(=O)N4CCN(C(=O)CN5C(=O)S/C(=C\c6ccc(F)cc6)C5=O)CC4)CC[C@]12C)OO3 | 12.2 µM | 12 µM | – | – | 9.34 µM | –
CC(C)[C@@H](C)/C=C/[C@@H](C)[C@H]1CC[C@@H]2[C@]1(C)CC[C@H]1[C@]23C=C[C@]2(C[C@@H](OC(=O)NCCNC(=O)CN4C(=O)S/C(=C\c5ccc(C(C)(C)C)cc5)C4=O)CC[C@]12C)OO3 | 10.7 µM | 9.86 µM | – | – | 6.68 µM | –
CC(C)[C@@H](C)/C=C/[C@@H](C)[C@H]1CC[C@@H]2[C@]1(C)CC[C@H]1[C@]23C=C[C@]2(C[C@@H](OC(=O)CN4C(=O)S/C(=C/c5ccco5)C4=O)CC[C@]12C)OO3 | 21 µM | 20.2 µM | – | – | 15 µM | –
CC(C)[C@@H](C)/C=C/[C@@H](C)[C@H]1CC[C@@H]2[C@]1(C)CC[C@H]1[C@]23C=C[C@]2(C[C@@H](OC(=O)CN4C(=O)CSC4=O)CC[C@]12C)OO3 | 10.4 µM | 17.7 µM | – | – | 7.52 µM | –
CC(C)[C@@H](C)/C=C/[C@@H](C)[C@H]1CC[C@@H]2[C@]1(C)CC[C@H]1[C@]23C=C[C@]2(C[C@@H](OC(=O)CN4C(=O)S/C(=C/c5ccccc5F)C4=O)CC[C@]12C)OO3 | 14.4 µM | 12.5 µM | – | – | 11.4 µM | –
